Experiments:
[1] = system: antibodies in sera from SARS patients (sera 1a, 1b, 2, 6, 37, 62, London, SARS-yellow, SARS-green); type: binding, human; design: Binding of serum 6 to linear peptides of protein X1 of SARS-CoV Urbani / Binding of serum 37 to linear peptides of protein X1 of SARS-CoV Urbani / Binding of serum 6 to looped/cyclic peptide (PEPSCAN-ELISA) / Binding of serum 37 to looped/cyclic peptide (PEPSCAN-ELISA) / Binding of serum 37 to looped/cyclic peptides of protein X1 of SARS-CoV Urbani / Binding of serum 6 to linear peptides of protein X2 / Binding of serum 37 to linear peptides of protein X2 / Binding of serum 37 to looped/cyclic peptides of protein X2 of SARS-CoV Urbani / Binding of serum 6 to linear peptides of protein M of SARS-CoV Urbani / Binding of serum 37 to linear peptides of protein M of SARS-CoV Urbani / Binding of serum 6 to looped/cyclic peptides of protein M of SARS-CoV Urbani / Binding of serum 37 to looped/cyclic peptides of protein M of SARS-CoV Urbani / Binding of serum 6 to linear peptides of protein X3 of SARS-CoV Urbani / Binding of serum 37 to linear peptides of protein X3 of SARS-CoV Urbani / Binding of serum 37 to looped/cyclic peptides of protein X3 of SARS-CoV Urbani / Binding of serum 6 to linear peptides of protein X4 of SARS-CoV Urbani / Binding of serum 37 to linear peptides of protein X4 of SARS-CoV Urbani / Binding of serum 37 to looped/cyclic peptides of protein X4 of SARS-CoV Urbani / Binding of serum 6 to linear peptides of protein X5 of SARS-CoV Urbani / Binding of serum 37 to linear peptides of protein X5 of SARS-CoV Urbani / Binding of serum 37 to looped/cyclic peptides of protein X5 of SARS-CoV Urbani / Binding of serum 6 to linear peptides of protein N of SARS-CoV Urbani / Binding of serum 37 to linear peptides of protein N of SARS-CoV Urbani / Binding of serum 6 to linear peptide (PEPSCAN-ELISA) / Binding of serum 1a to looped/cyclic peptides of protein N of SARS-CoV Urbani / Binding of serum 1b to looped/cyclic peptides of protein N of SARS-CoV Urbani / Binding of serum 2 to looped/cyclic peptides of protein N of SARS-CoV Urbani / Binding of serum 6 to looped/cyclic peptides of protein N of SARS-CoV Urbani / Binding of serum 37 to looped/cyclic peptides of protein N of SARS-CoV Urbani / Binding of serum 62 to looped/cyclic peptides of protein N of SARS-CoV Urbani / Binding of serum London to looped/cyclic peptides of protein N of SARS-CoV Urbani / Binding of serum SARS-green to looped/cyclic peptides of protein N of SARS-CoV Urbani: unit not given here
[2] = system: control sera (pooled serum of ten healthy LUMC hospital workers; commercial negative donor pooled serum from the Dutch bloodbank); type: binding, human; design: Binding of Control serum LUMC to linear peptides / Binding of Control serum Blood-bank to linear peptides / Binding of Control serum LUMC to looped peptides / Binding of Control Serum Blood-Bank to Looped peptides / Binding of Control serum LUMC to linear peptides of the protein M of SARS-CoV Urbani / Binding of Control serum Blood-bank to linear peptides of the protein M of SARS-CoV Urbani / Binding of Control serum LUMC to looped peptides of the protein M of SARS-CoV Urbani / Binding of Control Serum Blood-Bank to Looped peptides of the protein M of SARS-CoV Urbani: unit not given here
[3] = system: rabbit serum obtained by immunizing a rabbit with the SARS-CoV strain Frankfurt 1; type: binding; design: Binding of a rabbit serum to linear peptides / Binding of a rabbit serum to looped peptides / Rabbit serum linear peptides / Rabbit serum looped peptides / Binding of a rabbit serum to linear peptides of protein N of SARS-CoV Urbani (Rabbit serum linear peptides) / Binding of a rabbit serum to looped/cyclic peptides of protein N of SARS-CoV Urbani (Rabbit serum looped peptides): unit not given here

In the case of IKLVFLWLLWPVTLA, the “Binding of serum 1a to linear peptides of protein M of SARS-CoV Urbani” value [1] is reported as 0.7, the “Binding of serum 1a to looped/cyclic peptides of protein M of SARS-CoV Urbani” value [1] is reported as 0.7 and the “Binding of serum 1b to linear peptides of protein M of SARS-CoV Urbani” value [1] is reported as 0.5. For the same sequence, the “Binding of serum 1b to looped/cyclic peptides of protein M of SARS-CoV Urbani” value [1] was 0.8, the “Binding of serum 2 to linear peptides of protein M of SARS-CoV Urbani” value [1] was 0.7 and the “Binding of serum 2 to looped/cyclic peptides of protein M of SARS-CoV Urbani” value [1] was 0.6. The “Binding of serum 6 to linear peptides of protein M of SARS-CoV Urbani” value [1] was 0.5, the “Binding of serum 6 to looped/cyclic peptides of protein M of SARS-CoV Urbani” value [1] was 0.9 and the “Binding of serum 37 to linear peptides of protein M of SARS-CoV Urbani” value [1] was 0.6. For the same sequence, the “Binding of serum 37 to looped/cyclic peptides of protein M of SARS-CoV Urbani” value [1] was 0.8, the “Binding of serum 62 to linear peptides of protein M of SARS-CoV Urbani” value [1] was 0.7 and the “Binding of serum 62 to looped/cyclic peptides of protein M of SARS-CoV Urbani” value [1] was 0.8. The “Binding of serum London to linear peptides of protein M of SARS-CoV Urbani” value [1] was 0.6, the “Binding of serum London to looped/cyclic peptides of protein M of SARS-CoV Urbani” value [1] was 0.3 and the “Binding of serum SARS-green to linear peptides of protein M of SARS-CoV Urbani” value [1] was 0.3. For the same sequence, the “Binding of serum SARS-green to looped/cyclic peptides of protein M of SARS-CoV Urbani” value [1] was 0.3, the “Binding of serum SARS-yellow to linear peptides of protein M of SARS-CoV Urbani” value [1] was 0.1 and the “Binding of serum SARS-yellow to looped/cyclic peptides of protein M of SARS-CoV Urbani” value [1] was 0.5. For the same sequence, the “Binding of Control Serum Blood-Bank to Looped peptides of the protein M of SARS-CoV Urbani” value [2] was 0.9, the “Binding of Control serum Blood-bank to linear peptides of the protein M of SARS-CoV Urbani” value [2] was 0.7 and the “Binding of Control serum LUMC to linear peptides of the protein M of SARS-CoV Urbani” value [2] was 0.4. The “Binding of Control serum LUMC to looped peptides of the protein M of SARS-CoV Urbani” value [2] was 0.7, the “Rabbit serum linear peptides” value [3] was 0.3 and the “Rabbit serum looped peptides” value [3] was 0.0.
For ILFLTLIVFTSCELY, the “Binding of serum 1a to linear peptides of protein X4 of SARS-CoV Urbani” value [1] was 0.7, the “Binding of serum 1a to looped/cyclic peptides of protein X4 of SARS-CoV Urbani” value [1] was 0.7 and the “Binding of serum 1b to linear peptides of protein X4 of SARS-CoV Urbani” value [1] was 0.6. The “Binding of serum 1b to looped/cyclic peptides of protein X4 of SARS-CoV Urbani” value [1] was 0.4, the “Binding of serum 2 to linear peptides of protein X4 of SARS-CoV Urbani” value [1] was 0.5 and the “Binding of serum 2 to looped/cyclic peptides of protein X4 of SARS-CoV Urbani” value [1] was 0.7. For the same sequence, the “Binding of serum 6 to linear peptides of protein X4 of SARS-CoV Urbani” value [1] was 0.5, the “Binding of serum 6 to looped/cyclic peptides of protein X4 of SARS-CoV Urbani” value [1] was 0.6 and the “Binding of serum 37 to linear peptides of protein X4 of SARS-CoV Urbani” value [1] was 0.7. For the same sequence, the “Binding of serum 37 to looped/cyclic peptides of protein X4 of SARS-CoV Urbani” value [1] was 0.7, the “Binding of serum 62 to linear peptides of protein X4 of SARS-CoV Urbani” value [1] was 0.7 and the “Binding of serum 62 to looped/cyclic peptides of protein X4 of SARS-CoV Urbani” value [1] was 0.7. For the same sequence, the “Binding of serum London to linear peptides of protein X4 of SARS-CoV Urbani” value [1] was 0.6, the “Binding of serum London to looped/cyclic peptides of protein X4 of SARS-CoV Urbani” value [1] was 0.3 and the “Binding of serum SARS-green to linear peptides of protein X4 of SARS-CoV Urbani” value [1] was 0.6. For the same sequence, the “Binding of serum SARS-green to looped/cyclic peptides of protein X4 of SARS-CoV Urbani” value [1] was 0.4, the “Binding of serum SARS-yellow to linear peptides of protein X4 of SARS-CoV Urbani” value [1] was 0.4 and the “Binding of serum SARS-yellow to looped/cyclic peptides of protein X4 of SARS-CoV Urbani” value [1] was 0.6. For the same sequence, the “Binding of Control Serum Blood-Bank to Looped peptides” value [2] was 0.7, the “Binding of Control serum Blood-bank to linear peptides” value [2] was 0.6 and the “Binding of Control serum LUMC to linear peptides” value [2] was 0.7. The “Binding of Control serum LUMC to looped peptides” value [2] was 0.8, the “Rabbit serum linear peptides” value [3] was 0.7 and the “Rabbit serum looped peptides” value [3] was 0.2.
ILRIGTQVLKTMSLY was tested, and the “Binding of serum 1a to linear peptides of protein X2” value [1] was 0.7, the “Binding of serum 1a to looped/cyclic peptides of protein X2 of SARS-CoV Urbani” value [1] was 0.6 and the “Binding of serum 1b to linear peptides of protein X2” value [1] was 0.5. The “Binding of serum 1b to looped/cyclic peptides of protein X2 of SARS-CoV Urbani” value [1] was 0.5, the “Binding of serum 2 to linear peptides of protein X2” value [1] was 0.4 and the “Binding of serum 2 to looped/cyclic peptides of protein X2 of SARS-CoV Urbani” value [1] was 0.3. The “Binding of serum 6 to linear peptides of protein X2” value [1] was 0.4, the “Binding of serum 6 to looped/cyclic peptides of protein X2 of SARS-CoV Urbani” value [1] was 0.5 and the “Binding of serum 37 to linear peptides of protein X2” value [1] was 0.6. The “Binding of serum 37 to looped/cyclic peptides of protein X2 of SARS-CoV Urbani” value [1] was 0.5, the “Binding of serum 62 to linear peptides of protein X2” value [1] was 0.6 and the “Binding of serum 62 to looped/cyclic peptides of protein X2 of SARS-CoV Urbani” value [1] was 0.6. The “Binding of serum London to linear peptides of protein X2” value [1] was 0.4, the “Binding of serum London to looped/cyclic peptides of protein X2 of SARS-CoV Urbani” value [1] was 0.3 and the “Binding of serum SARS-green to linear peptides of protein X2” value [1] was 0.4. For the same sequence, the “Binding of serum SARS-green to looped/cyclic peptides of protein X2 of SARS-CoV Urbani” value [1] was 0.3, the “Binding of serum SARS-yellow to linear peptides of protein X2” value [1] was 0.5 and the “Binding of serum SARS-yellow to looped/cyclic peptides of protein X2 of SARS-CoV Urbani” value [1] was 0.6. For the same sequence, the “Binding of Control Serum Blood-Bank to Looped peptides” value [2] was 0.7, the “Binding of Control serum Blood-bank to linear peptides” value [2] was 0.6 and the “Binding of Control serum LUMC to linear peptides” value [2] was 0.4. The “Binding of Control serum LUMC to looped peptides” value [2] was 0.7, the “Binding of a rabbit serum to linear peptides” value [3] was 0.3 and the “Binding of a rabbit serum to looped peptides” value [3] was 0.5.

— patent US20070128217A1 (priority 2003, published 2007)
